Among the test systems are UACC-62 melanoma; NCI-H522 lung; SNB-75 CNS; RPMI-8226 leukemia; UO-31 renal; MOLT-4 leukemia; SK-MEL-2 melanoma.
Common to all, as to test: DTP human tumour cell line panel, 48 h

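A five-concentration, 48-hour dose response in 96-well plates underlies each endpoint, interpolated linearly between surrounding concentrations. At the GI50, growth is halved. TGI marks complete inhibition of growth.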

What is called TGI is the concentration at which net growth stops. Read a low TGI as more potent growth arrest. A word on the GI50: it is the concentration at which growth is held to half of that of the control.

On to `O=C(NC12CC3CC(CC(C3)C1)C2)C(=O)c1c[nH]c2ccc(Br)cc12`, for which the TGI in the test with UACC-62 melanoma is above 100 µM; in the test with NCI-H522 lung, above 100 µM; in the test with SNB-75 CNS it was 28.2 µM; with RPMI-8226 leukemia, above 100 µM; in the test with UO-31 renal, above 100 µM; in the test on MOLT-4 leukemia it was 44.2 µM. This compound also gave a TGI in the test with SK-MEL-2 melanoma above 100 µM.
Turning to `COc1cc(N)c2[nH]c3c(C)ccc(C)c3c2c1`, the concentration for total growth inhibition (TGI) in the test with NCI-H522 lung, in the test on SNB-75 CNS, with RPMI-8226 leukemia, in the test on UO-31 renal, with MOLT-4 leukemia and with SK-MEL-2 melanoma was above 100 µM each time.
`N#CNC(=NCc1ccccc1)NCCc1c[nH]c2ccccc12`: the TGI with UACC-62 melanoma was above 100 µM; with SNB-75 CNS it was above 100 µM; in the test on RPMI-8226 leukemia, above 100 µM; in the test with UO-31 renal, 86.2 µM; in the test with MOLT-4 leukemia, above 100 µM.
In the case of `Cc1c(OCCCOc2ccc3c(=O)cc(-c4ccccc4)oc3c2C)ccc2c(=O)cc(-c3ccccc3)oc12`, the concentration for total growth inhibition (TGI) with UACC-62 melanoma, with NCI-H522 lung, in the test with RPMI-8226 leukemia, in the test on UO-31 renal, in the test with MOLT-4 leukemia and with SK-MEL-2 melanoma was above 100 µM in each case.
Regarding `NC(=O)COc1c(Br)cc(Br)cc1Br`, the TGI in the test with UACC-62 melanoma, with NCI-H522 lung, in the test with SNB-75 CNS, in the test with RPMI-8226 leukemia, in the test with UO-31 renal and with MOLT-4 leukemia was above 100 µM in each case. The same compound showed a concentration for total growth inhibition (TGI) in the test on SK-MEL-2 melanoma above 100 µM.
In the case of `CC(=O)Oc1c2c(c(OC(C)=O)c3c1n(C(C)=O)c1ccccc1n3C(C)=O)n(C(C)=O)c1ccccc1n2C(C)=O`, the total growth inhibition concentration (TGI) was found to be 37 µM in the test with UACC-62 melanoma; 5.97 µM in the test on NCI-H522 lung; 46.1 µM in the test with SNB-75 CNS; 10.8 µM in the test on RPMI-8226 leukemia; 25.2 µM in the test with UO-31 renal; 8.7 µM with MOLT-4 leukemia. The compound further yielded a TGI in the test with SK-MEL-2 melanoma of 24 µM.
Regarding `COC1=CC(=O)C2C(C1=O)[C@@H]1c3ccccc3OC(C)(C)[C@H]21` (stereo partly specified), the TGI in the test with NCI-H522 lung is 27.7 µM; in the test with SNB-75 CNS it was above 100 µM; with RPMI-8226 leukemia, 72.2 µM; with UO-31 renal, 38.1 µM; in the test with MOLT-4 leukemia, 41.2 µM; with SK-MEL-2 melanoma, 71.2 µM.
As to `N=S(=O)(c1ccccc1)c1ccccc1`, the concentration for total growth inhibition (TGI) in the test on UACC-62 melanoma, with NCI-H522 lung, in the test on SNB-75 CNS, with RPMI-8226 leukemia, in the test with UO-31 renal and in the test on MOLT-4 leukemia was above 100 µM each time. Also, in the test on SK-MEL-2 melanoma, the TGI was above 100 µM.
`Cc1cc(Br)cc(C)c1NC(=O)C(=O)C(C(=O)c1ccncc1)C1OC(=O)c2ccccc21` (stereo unspecified): the TGI in the test with UACC-62 melanoma, in the test with NCI-H522 lung, in the test on RPMI-8226 leukemia, with UO-31 renal and in the test with MOLT-4 leukemia was above 100 µM each time.
With `Nc1ccc2nc(Nc3ccc(Cl)c(Cl)c3)cnc2c1`, the concentration for total growth inhibition (TGI) was 21.6 µM in the test on NCI-H522 lung; above 100 µM in the test with SNB-75 CNS; 54.4 µM with RPMI-8226 leukemia; 29.4 µM in the test on UO-31 renal; 97.7 µM in the test on MOLT-4 leukemia; 37.7 µM in the test on SK-MEL-2 melanoma.
On to `Nc1ncnc2c1sc(=S)n2-c1ccccc1`, for which the concentration for total growth inhibition (TGI) in the test with UACC-62 melanoma, in the test with NCI-H522 lung, in the test on SNB-75 CNS, in the test on RPMI-8226 leukemia, in the test on UO-31 renal and in the test on MOLT-4 leukemia was above 100 µM each time. Further, in the test on SK-MEL-2 melanoma, the TGI is above 100 µM.
In the case of `C[N+](C)=c1ccc2nc3c(ccc4ccccc43)oc-2c1`, the TGI was 16.3 µM in the test on UACC-62 melanoma; 8.07 µM with NCI-H522 lung; 32.5 µM with SNB-75 CNS; above 64.7 µM in the test on RPMI-8226 leukemia; 31.5 µM in the test with UO-31 renal; 20.4 µM in the test on MOLT-4 leukemia. The same compound registered a concentration for total growth inhibition (TGI) in the test on SK-MEL-2 melanoma of 36.6 µM.
`CCOP(=O)(OCC)/C(C#N)=C\c1ccsc1`: the concentration for total growth inhibition (TGI) in the test with UACC-62 melanoma, in the test with NCI-H522 lung, with SNB-75 CNS, with RPMI-8226 leukemia, in the test on UO-31 renal and in the test on MOLT-4 leukemia was above 100 µM each time. This compound had a concentration for total growth inhibition (TGI) with SK-MEL-2 melanoma above 100 µM.
Turning to `COc1cccc2c1C(=O)c1c(O)c3c(c(O)c1C2=O)C[C@@](O)(C(=O)CN1CCOCC1)C[C@@H]3OC1CC(N)C(O)C(C)O1` (stereo partly specified), the TGI in the test on UACC-62 melanoma is 15.7 µM; in the test with NCI-H522 lung, 15.4 µM; in the test with SNB-75 CNS, 22.4 µM; in the test on RPMI-8226 leukemia, 43.2 µM; with UO-31 renal, 59.6 µM; in the test with MOLT-4 leukemia, 1.15 µM. Further, in the test with SK-MEL-2 melanoma, the TGI came out at 22.7 µM. The GI50 in the test on MOLT-4 leukemia is 0.234 µM.
For the compound `C=C1C2C[C@@H]3OC4CC5O[C@]6(CC5OC4C(C)C3OC(=O)CC3CC[C@@H]4OC5C7OC8C[C@](CCC9CC(=C)[C@H](CCC(C[C@H]1C)O2)O9)(OC7C4O3)O[C@@H]85)C[C@@H]1O[C@@]2(CC(C)[C@@H]3OC(CC(=O)CCO)C(O)C[C@@H]3O2)CC(C)[C@@H]1O6` (stereo partly specified), the TGI is 0.181 µM with UACC-62 melanoma; below 0.001 µM in the test on NCI-H522 lung; 1.17 µM in the test with UO-31 renal; 2.19 µM in the test with MOLT-4 leukemia; below 0.001 µM in the test with SK-MEL-2 melanoma.
